Measurements as given in article PMC9170034 (Proceedings of the National Academy of Sciences of the …, 2022).
Values joined by “and” are separate entries in the source; they are usually repeats but may differ in a detail not shown here. Equal values may be shown once.

Assays:
OXA-10 [1] = target: T1, OXA-10 (Pseudomonas aeruginosa, UniProt P14489); assay: SPE-MS study of prolonged reaction of SBL with penam sulfones; settings: 500 equiv.
T1 construct: His tag (N); made in house

OXA-10 [2] = target: T1, OXA-10; assay: Kiapp and kinact/K determination in competition with FC-5; type: biochemical
Description: (§1) Kinetic analyses were performed (at least in triplicate) using either BMG LABTECH PHERAstar or CLARIOstar plate readers. Unless stated otherwise, reactions were in 50 mM phosphate buffer, pH 7.5, containing 0.01% (vol/vol) aqueous Triton X-100, and, in the case of OXA-10, 10 mM sodium bicarbonate. Assays were performed in competition with either the fluorescent reporter substrate FC-5 ([35]), using black-walled microplates (Greiner Bio-One μCLEAR, PS, F-bottom, black), and measuring fluorescence intensity (ʎex = 380 nm and ʎem = 460 nm), or with nitrocefin (NCF), using ultraviolet transparent plates (Greiner Bio-One UV-Star, COC, F-bottom, clear) and measuring absorbance (ʎAbs = 486 nm, using path-length correction). Nonlinear regression analysis was performed with Prism 5 (GraphPad Software).
(§2) IC50s were determined as reported ([35]). TEM-116 (1 nM), AmpCEC (500 pM), or OXA-10 (250 pM) were incubated with varied inhibitor concentrations at room temperature (r.t.) for the indicated time then assayed using 5 µM FC-5. The apparent inhibitory constant Kiapp and the second-order rate constant kinact/K (or k2/K) were determined using reported methods ([60]). SBLs were reacted with the reporter substrate in the presence of varied inhibitor concentrations. Reactions were initiated by SBL addition and immediately monitored for 60 to 120 s (until they plateaued). […]

AmpCEC = target: T2, AmpCEC (Escherichia coli, UniProt P00811); assay: biochemical
T2 construct: made in house
Description: as §1, §2

[3] = target: T3, AmpC from Escherichia coli (AmpCEC) (Escherichia coli, UniProt P00811); assay: IC50/pIC50 determination with fluorescent reporter substrate FC-5 after pre-incubation; type: biochemical
T3 construct: made in house
Description: as §1
IC50s were determined as reported ([35]). TEM-116 (1 nM), AmpCEC (500 pM), or OXA-10 (250 pM) were incubated with varied inhibitor concentrations at room temperature (r.t.) for the indicated time then assayed using 5 µM FC-5. The apparent inhibitory constant Kiapp and the second-order rate constant kinact/K (or k2/K) were determined using reported methods ([60]). SBLs were reacted with the reporter substrate in the presence of varied inhibitor concentrations. Reactions were initiated by SBL addition and immediately monitored for 60 to 120 s (until they plateaued). For TEM-116 (1 nM) assays were carried out in competition with NCF (50 µM); for AmpCEC (100 nM) and OXA-10 (50 nM) FC-5 (5 µM) was used. […] P=Vst+(V0−VS)(1−e^−kobst)/kobs+P0.

OXA-10 [4] = target: T1, OXA-10; assay: as above; type: biochemical
Description: Kinetic analyses were performed (at least in triplicate) using either BMG LABTECH PHERAstar or CLARIOstar plate readers. Unless stated otherwise, reactions were in 50 mM phosphate buffer, pH 7.5, containing 0.01% (vol/vol) aqueous Triton X-100, and, in the case of OXA-10, 10 mM sodium bicarbonate. […] Nonlinear regression analysis was performed with Prism 5 (GraphPad Software).
IC50s were determined as reported ([35]). […] The apparent inhibitory constant Kiapp and the second-order rate constant kinact/K (or k2/K) were determined using reported methods ([60]). SBLs were reacted with the reporter substrate in the presence of varied inhibitor concentrations. Reactions were initiated by SBL addition and immediately monitored for 60 to 120 s (until they plateaued). […] P=Vst+(V0−VS)(1−e^−kobst)/kobs+P0.

T3 sequence (P00811 20-377): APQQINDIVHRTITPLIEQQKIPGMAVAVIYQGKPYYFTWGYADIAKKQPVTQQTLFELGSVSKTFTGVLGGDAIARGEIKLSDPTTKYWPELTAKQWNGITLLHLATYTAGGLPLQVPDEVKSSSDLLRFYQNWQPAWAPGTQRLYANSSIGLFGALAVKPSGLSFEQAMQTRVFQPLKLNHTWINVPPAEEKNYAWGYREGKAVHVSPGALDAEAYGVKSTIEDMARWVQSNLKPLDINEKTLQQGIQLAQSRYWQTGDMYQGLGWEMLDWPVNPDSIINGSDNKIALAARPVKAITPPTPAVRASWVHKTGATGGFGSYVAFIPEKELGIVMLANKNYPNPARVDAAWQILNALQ
T1 sequence (P14489 20-266): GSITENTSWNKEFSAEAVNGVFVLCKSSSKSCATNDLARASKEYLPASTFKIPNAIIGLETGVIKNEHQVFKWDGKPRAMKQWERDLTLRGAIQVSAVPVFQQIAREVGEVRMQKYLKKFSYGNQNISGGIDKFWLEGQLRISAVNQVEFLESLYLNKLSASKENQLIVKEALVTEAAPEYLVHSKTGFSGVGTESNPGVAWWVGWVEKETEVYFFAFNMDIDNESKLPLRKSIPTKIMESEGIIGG
T2 sequence (P00811 20-377): as the sequence (P00811 20-377) above

Compound: CC1(C)[C@H](C(=O)O)N2C(=O)C[C@H]2S1(=O)=O [sulbactam]
- −18-Da modification, OXA-10 (OXA-10 [1]): Small amounts
- Ki (OXA-10 [2]): 4920 ± 873 µM
- Ki (AmpCEC): 1580 ± 189 µM
- IC50 ([3]; IC50, AmpC E. coli, 10 min pre-incubation, r.t., pH 7.5, FC-5 (5 μM)): 89 µM and 89.2 µM
- IC50 ([3]; pIC50, AmpCEC, pH 7.0, pH 7.0, 0 min pre-incubation, Table S2): 447 µM
- IC50 ([3]; pIC50, AmpCEC, pH 7.0, pH 7.0, 10 min pre-incubation, Table S2): 162 µM
- IC50 ([3]; pIC50, AmpCEC, pH 7.0, pH 7.0, 30 min pre-incubation, Table S2): 69.2 µM
- IC50 ([3]; pIC50, AmpCEC, pH 7.0, pH 7.0, 60 min pre-incubation, Table S2): 45.7 µM
- IC50 ([3]; pIC50, AmpCEC, pH 7.0, pH 7.0, 360 min pre-incubation, Table S2): 11.5 µM
- IC50 ([3]; pIC50, AmpCEC, pH 7.5, pH 7.5, 0 min pre-incubation, Table S2): 275 µM
- IC50 ([3]; pIC50, AmpCEC, pH 7.5, pH 7.5, 30 min pre-incubation, Table S2): 36.3 µM
- IC50 ([3]; pIC50, AmpCEC, pH 7.5, pH 7.5, 60 min pre-incubation, Table S2): 20 µM
- IC50 ([3]; pIC50, AmpCEC, pH 7.5, pH 7.5, 360 min pre-incubation, Table S2): 4.17 µM
- IC50 ([3]; pIC50, AmpCEC, pH 8.0, pH 8.0, 0 min pre-incubation, Table S2): 97.7 µM
- IC50 ([3]; pIC50, AmpCEC, pH 8.0, pH 8.0, 10 min pre-incubation, Table S2): 37.2 µM
- IC50 ([3]; pIC50, AmpCEC, pH 8.0, pH 8.0, 60 min pre-incubation, Table S2): 9.77 µM
- IC50 ([3]; pIC50, AmpCEC, pH 8.0, pH 8.0, 360 min pre-incubation, Table S2): 1.7 µM
- IC50 ([3]; pIC50 at pH 7.5, AmpCEC, 0 min pre-incubation, Table S1): 275 µM
- IC50 ([3]; pIC50 at pH 7.5, AmpCEC, 30 min pre-incubation, Table S1): 36.3 µM
- IC50 ([3]; pIC50 at pH 7.5, AmpCEC, 60 min pre-incubation, Table S1): 20 µM
- IC50 ([3]; pIC50 at pH 7.5, AmpCEC, 360 min pre-incubation, Table S1): 4.17 µM
- IC50 (OXA-10 [4]; IC50, OXA-10, 10 min pre-incubation, r.t., pH 7.5, FC-5 (5 μM), 100 mM NaHCO3 added): 143 µM and 142 µM
- IC50 (OXA-10 [4]; pIC50 at pH 7.5, OXA-10, with 100 mM added NaHCO3, 0 min pre-incubation, Table S1): 218.8 ± 0.598 µM
- IC50 (OXA-10 [4]; pIC50 at pH 7.5, OXA-10, with 100 mM added NaHCO3, 30 min pre-incubation, Table S1): 263 µM
- IC50 (OXA-10 [4]; pIC50 at pH 7.5, OXA-10, with 100 mM added NaHCO3, 60 min pre-incubation, Table S1): 112 µM
- IC50 (OXA-10 [4]; pIC50 at pH 7.5, OXA-10, with 100 mM added NaHCO3, 360 min pre-incubation, Table S1): 204 µM
- IC50 (OXA-10 [4]; pIC50 at pH 7.5, OXA-10, without added NaHCO3, 0 min pre-incubation, Table S1): 204 µM
- IC50 (OXA-10 [4]; pIC50 at pH 7.5, OXA-10, without added NaHCO3, 10 min pre-incubation, Table S1): 87.1 µM
- IC50 (OXA-10 [4]; pIC50 at pH 7.5, OXA-10, without added NaHCO3, 30 min pre-incubation, Table S1): 89.1 µM
- IC50 (OXA-10 [4]; pIC50 at pH 7.5, OXA-10, without added NaHCO3, 60 min pre-incubation, Table S1): 75.9 µM
- IC50 (OXA-10 [4]; pIC50 at pH 7.5, OXA-10, without added NaHCO3, 360 min pre-incubation, Table S1): 50.1 µM
